According to the supplement of paper PMC10307832:

Legend:
Assay in all cases: relative viability (nuclei count vs DMSO), 5 days (fraction); higher = more cells survive
A-427 = tested on: A-427
How it was run: (§1)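 Relative viability is defined as nuclei in treated wells over nuclei in vehicle wells. Duplicate plates were run and medians reported. Lung cancer cell lines in 1536-well plates were dosed by pin tool one day after seeding, with one drug or with a fixed anchor-drug dose plus five library-drug doses (not always all listed) in √10 steps, and nuclei were counted after 5 days.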

H3255 = tested on: H3255
How it was run: as §1

HARA = tested on: HARA
How it was run: as §1

HCC-15 = tested on: HCC-15
How it was run: as §1

HCC-366 = tested on: HCC-366
How it was run: as §1

LXF-289 = tested on: LXF-289
How it was run: as §1

NCI-H1437 = tested on: NCI-H1437
How it was run: as §1

NCI-H1755 = tested on: NCI-H1755
How it was run: as §1

NCI-H1793 = tested on: NCI-H1793
How it was run: as §1

NCI-H1915 = tested on: NCI-H1915
How it was run: as §1

NCI-H1975 = tested on: NCI-H1975
How it was run: as §1

NCI-H2009 = tested on: NCI-H2009
How it was run: as §1

NCI-H2023 = tested on: NCI-H2023
How it was run: as §1

NCI-H2405 = tested on: NCI-H2405
How it was run: as §1

NCI-H3122 = tested on: NCI-H3122
How it was run: as §1

NCI-H441 = tested on: NCI-H441
How it was run: as §1

NCI-H460 = tested on: NCI-H460
How it was run: as §1

NCI-H596 = tested on: NCI-H596
How it was run: as §1

PC-14 = tested on: PC-14
How it was run: as §1

PC-3 [JPC-3] = tested on: PC-3 [JPC-3]
How it was run: as §1

SK-LU-1 = tested on: SK-LU-1
How it was run: as §1

UMC-11 = tested on: UMC-11
How it was run: as §1

SMILES: O=C(O)CCCCC(CCSCc1ccccc1)SCc1ccccc1 (centres undefined) [CPI-613] + CC1(C)CCC(c2ccc(Cl)cc2)=C(CN2CCN(c3ccc(C(=O)NS(=O)(=O)c4ccc(N[C@H](CCN5CCOCC5)CSc5ccccc5)c(S(=O)(=O)C(F)(F)F)c4)cc3)CC2)C1 [Navitoclax] (partner 0.5 µM)
- relative viability (A-427; first compound 5 µM): 0.974
- relative viability (A-427; first compound 15.81 µM): 0.919
- relative viability (A-427; first compound 50 µM): 0.829
- relative viability (A-427; first compound 158.11 µM): 0.342
- relative viability (A-427; first compound 500 µM): 0.273
- relative viability (H3255; first compound 5 µM): 0.497
- relative viability (H3255; first compound 15.81 µM): 0.476
- relative viability (H3255; first compound 50 µM): 0.337
- relative viability (H3255; first compound 158.11 µM): 0.498
- relative viability (H3255; first compound 500 µM): 0.562
- relative viability (HARA; first compound 5 µM): 1.14
- relative viability (HARA; first compound 15.81 µM): 1.13
- relative viability (HARA; first compound 50 µM): 1.16
- relative viability (HARA; first compound 158.11 µM): 0.504
- relative viability (HARA; first compound 500 µM): 0.0371
- relative viability (HCC-15; first compound 5 µM): 0.625
- relative viability (HCC-15; first compound 15.81 µM): 0.68
- relative viability (HCC-15; first compound 50 µM): 0.612
- relative viability (HCC-15; first compound 158.11 µM): 0.309
- relative viability (HCC-15; first compound 500 µM): 0.278
- relative viability (HCC-366; first compound 5 µM): 1.03
- relative viability (HCC-366; first compound 15.81 µM): 0.99
- relative viability (HCC-366; first compound 50 µM): 1.1
- relative viability (HCC-366; first compound 158.11 µM): 0.774
- relative viability (HCC-366; first compound 500 µM): 0.0086
- relative viability (LXF-289; first compound 5 µM): 0.898
- relative viability (LXF-289; first compound 15.81 µM): 0.894
- relative viability (LXF-289; first compound 50 µM): 0.905
- relative viability (LXF-289; first compound 158.11 µM): 0.157
- relative viability (LXF-289; first compound 500 µM): 0.0115
- relative viability (NCI-H1437; first compound 5 µM): 1.03
- relative viability (NCI-H1437; first compound 15.81 µM): 0.957
- relative viability (NCI-H1437; first compound 50 µM): 1.03
- relative viability (NCI-H1437; first compound 158.11 µM): 0.199
- relative viability (NCI-H1437; first compound 500 µM): 0.0367
- relative viability (NCI-H1755; first compound 5 µM): 0.945
- relative viability (NCI-H1755; first compound 15.81 µM): 0.934
- relative viability (NCI-H1755; first compound 50 µM): 0.935
- relative viability (NCI-H1755; first compound 158.11 µM): 0.831
- relative viability (NCI-H1755; first compound 500 µM): 0.161
- relative viability (NCI-H1793; first compound 5 µM): 0.393
- relative viability (NCI-H1793; first compound 50 µM): 0.346
- relative viability (NCI-H1793; first compound 158.11 µM): 0.363
- relative viability (NCI-H1793; first compound 500 µM): 0.1
- relative viability (NCI-H1915; first compound 5 µM): 0.781
- relative viability (NCI-H1915; first compound 15.81 µM): 0.778
- relative viability (NCI-H1915; first compound 50 µM): 0.724
- relative viability (NCI-H1915; first compound 158.11 µM): 0.552
- relative viability (NCI-H1915; first compound 500 µM): 0.55
- relative viability (NCI-H1975; first compound 5 µM): 0.988
- relative viability (NCI-H1975; first compound 15.81 µM): 1.1
- relative viability (NCI-H1975; first compound 50 µM): 1.08
- relative viability (NCI-H1975; first compound 158.11 µM): 0.816
- relative viability (NCI-H1975; first compound 500 µM): 0.0403
- relative viability (NCI-H2009; first compound 5 µM): 1.18
- relative viability (NCI-H2009; first compound 15.81 µM): 1.08
- relative viability (NCI-H2009; first compound 50 µM): 1.11
- relative viability (NCI-H2009; first compound 158.11 µM): 0.264
- relative viability (NCI-H2009; first compound 500 µM): 0.0303
- relative viability (NCI-H2023; first compound 5 µM): 1.01
- relative viability (NCI-H2023; first compound 15.81 µM): 0.997
- relative viability (NCI-H2023; first compound 50 µM): 0.951
- relative viability (NCI-H2023; first compound 158.11 µM): 0.103
- relative viability (NCI-H2023; first compound 500 µM): 0.0259
- relative viability (NCI-H2405; first compound 5 µM): 0.929
- relative viability (NCI-H2405; first compound 15.81 µM): 0.796
- relative viability (NCI-H2405; first compound 50 µM): 0.765
- relative viability (NCI-H2405; first compound 158.11 µM): 0.795
- relative viability (NCI-H2405; first compound 500 µM): 0.67
- relative viability (NCI-H3122; first compound 5 µM): 0.992
- relative viability (NCI-H3122; first compound 15.81 µM): 1.06
- relative viability (NCI-H3122; first compound 50 µM): 0.988
- relative viability (NCI-H3122; first compound 158.11 µM): 0.571
- relative viability (NCI-H3122; first compound 500 µM): 0.0262
- relative viability (NCI-H441; first compound 5 µM): 0.564
- relative viability (NCI-H441; first compound 15.81 µM): 0.805
- relative viability (NCI-H441; first compound 50 µM): 0.731
- relative viability (NCI-H441; first compound 158.11 µM): 0.186
- relative viability (NCI-H441; first compound 500 µM): 0.0161
- relative viability (NCI-H460; first compound 5 µM): 1.12
- relative viability (NCI-H460; first compound 15.81 µM): 1.09
- relative viability (NCI-H460; first compound 50 µM): 1.03
- relative viability (NCI-H460; first compound 158.11 µM): 0.29
- relative viability (NCI-H460; first compound 500 µM): 0.0105
- relative viability (NCI-H596; first compound 5 µM): 1.01
- relative viability (NCI-H596; first compound 15.81 µM): 0.925
- relative viability (NCI-H596; first compound 50 µM): 1.11
- relative viability (NCI-H596; first compound 158.11 µM): 0.362
- relative viability (NCI-H596; first compound 500 µM): 0.0344
- relative viability (PC-14; first compound 5 µM): 1
- relative viability (PC-14; first compound 15.81 µM): 1.05
- relative viability (PC-14; first compound 50 µM): 1
- relative viability (PC-14; first compound 158.11 µM): 0.869
- relative viability (PC-14; first compound 500 µM): 1.16
- relative viability (PC-3 [JPC-3]; first compound 5 µM): 0.819
- relative viability (PC-3 [JPC-3]; first compound 15.81 µM): 0.7
- relative viability (PC-3 [JPC-3]; first compound 50 µM): 0.696
- relative viability (PC-3 [JPC-3]; first compound 158.11 µM): 0.448
- relative viability (PC-3 [JPC-3]; first compound 500 µM): 0.469
- relative viability (SK-LU-1; first compound 5 µM): 0.78
- relative viability (SK-LU-1; first compound 15.81 µM): 0.586
- relative viability (SK-LU-1; first compound 50 µM): 0.857
- relative viability (SK-LU-1; first compound 158.11 µM): 0.195
- relative viability (SK-LU-1; first compound 500 µM): 0.156
- relative viability (UMC-11; first compound 5 µM): 0.28
- relative viability (UMC-11; first compound 15.81 µM): 0.324
- relative viability (UMC-11; first compound 50 µM): 0.278
- relative viability (UMC-11; first compound 158.11 µM): 0.143
- relative viability (UMC-11; first compound 500 µM): 0.0935
